test system: HSV-1; test: HSV-1 infection of Vero 76 cells, viral DNA hybridization capture assay; type: cell-based; conditions: Human alphaherpesvirus 1; HSV-1 (MOI=0.001) in Vero 76 cells, 40–48 hours incubation, HSV DNA hybridization with chemiluminescence detection
Protocol: Vero 76 cells were maintained in MEM with Earle's salts, L-glutamine, 8% FBS (Hyclone, A-1111-L) and 100 units/mL Penicillin-100 μg/mL Streptomycin. For assay conditions, FBS was reduced to 2%. Cells are seeded into 96-well tissue culture plates at a density of 5×10^4 cells/well after being incubated for 45 min at 37° C. in the presence of HSV-1 or HSV-2 (MOI=0.001). Test compounds are added to the wells and the plates are incubated at 37° C. for 40–48 hours. Cell lysates are prepared as follows: media was removed and replaced with 150 μL/well 0.2 N NaOH with 1% Igepal CA 630 or NP-40. Plates were incubated up to 14 days at room temperature in a humidified chamber to prevent evaporation.
For the detection probe, a gel-purified, digoxigenin-labeled, […] PCR fragment of the HSV UL-15 sequence was utilized. PCR conditions included 0.5 μM primers, 180 μM dTTP, 20 μM dUTP-digoxigenin (Boehringer Mannheim 1558706), 200 μM each of dATP, dCTP, and dGTP, 1×PCR Buffer II (Perkin Elmer), 2.5 mM, MgCl2, 0.025 units/μL of AmpliTaq Gold polyerase (Perkin Elmer), and 5 ng a gel-purified HSV DNA per 100 μL Extension conditions were 10 min at 95° C., followed by 30 cycles of 95° C. for 1 min, 55° C. for 30 sec, and 72° C. for 2 min. The amplification was completed with a 10-min incubation at 72° C. Primers were selected to amplify a 728 bp probe spanning a section of the HSV1 UL15 open reading frame (nucleotides 249–977). Single-stranded transcripts were purified with Promega M13 Wizard kits. The final product was mixed 1:1 with a mixture of 6 M GuSCN, 100 mM EDTA and 200 μg/mL herring sperm DNA and stored at 4° C.
The capture DNA plasmid (HSV UL13 region in pUC) was linearized by cutting with Xba I, denatured for 15 min at 95° C. and diluted immediately into Reacti-Bind DNA Coating Solution (Pierce, 17250, diluted 1:1 with TE buffer, pH 8) at 1 ng/μL 75 μl/well were added to Corning (#3922 or 9690) white 96-well plates and incubated at room temperature for at least 4 hrs before washing twice with 300 μL/well 0.2×SSC/0.05% Tween-20 (SSC/T buffer). The plates were then incubated overnight at room temperature with 150 μL/well 0.2 N NaOH, 1% IGEPAL and 10 μg/mL herring sperm DNA.
Twenty-seven (27) μL of cell lysate was combined with 45 μL of hydridization solution (final concentration: 3M GuSCN, 50 mM EDTA, 100 μg/ml salmon sperm DNA, 5× Denhardt's solution, 0.25× APE, and 5 ng of the digoxigenin-labeled detection probe). APE is 1.5 M NH4-acetate, 0.15 M NH4H2phosphate, and 5 mM EDTA adjusted to pH 6.0. Mineral oil (50 μL) was added to prevent evaporation. The hybridization plates were incubated at 95° C. for 10 minutes to denature the DNA, then incubated at 42° C. overnight. The wells were washed 6× with 300 μL/well SSC/T buffer then incubated with 75 μL/well anti-digoxigenin-HRP-conjugated antibody (Boehringer Mannheim 1207733, 1:5000 in TE) for 30 min at room temperature. The wells were washed 6× with 300 μL/well with PBS/0.05% Tween-20 before 75 μL/well SuperSignal LBA substrate (Pierce) was added. The plates were incubated at room temperature for 30 minutes and chemiluminescence was measured in a Wallac Vietor reader.
The following results were obtained for HSV-1.

IC50 [µM]	Compound
> 40	Cc1csc(Nc2nccc(-c3c(-c4ccc(F)cc4)nn4c(NC5CCCC5)nccc34)n2)n1 [Example 15, N-Cyclopentyl-2-(4-fluorophenyl)-3-{2-[(4-methyl-1,3-thiazol-2-yl)amino]pyrimidin-4-yl}pyrazolo[1,5-c]pyrimidin-7-amine]
> 40	Fc1ccc(-c2nn3c(NC4CCCC4)nccc3c2-c2ccnc(Nc3nc4ccccc4[nH]3)n2)cc1 [Example 16, 3-[2-(1H-Benzimidazol-2-ylamino)pyrimidin-4-yl]-N-cyclopentyl-2-(4-fluorophenyl)pyrazolo[1,5-c]pyrimidin-7-amine]
2	Fc1ccc(CNc2nccc(-c3c(-c4ccc(F)cc4)nn4c(NC5CCCC5)nccc34)n2)cc1 [Example 17, N-Cyclopentyl-3-{2-[(4-fluorobenzyl)amino]pyrimidin-4-yl}-2-(4-fluorophenyl)pyrazolo[1,5-c]pyrimidin-7-amine]
3.5	Fc1ccc(-c2nn3c(NC4CCCC4)nccc3c2-c2ccnc(NCCc3ccccc3)n2)cc1 [Example 18, N-Cyclopentyl-2-(4-fluorophenyl)-3-{2-[(2-phenylethyl)amino]pyrimidin-4yl}pyrazolo[1,5-c]pyrimidin-7-amine]
3	CC(C)(C)Nc1nccc(-c2c(-c3ccc(F)cc3)nn3c(NC4CCCC4)nccc23)n1 [Example 19, 3-[2-(tert-Butylamino)pyrimidin-4-yl]-N-cyclopentyl-2-(4-fluorophenyl)pyrazolo[1,5-c]pyrimidin-7-amine]
> 40	CSc1nccc2c(-c3ccnc(NC4CCCC4)n3)c(-c3ccc(F)cc3)nn12 [Example 20, N-Cyclopentyl-4-[2-(4-fluorophenyl)-7-(methylsulfanyl)pyrazolo[1,5-c]pyrimidin-3-yl]pyrimidin-2-amine]
0.4	COc1ccc(-c2nn3c(NC4CCCC4)nccc3c2-c2ccnc(NC3CCCC3)n2)cc1 [Example 21, N-Cyclopentyl-3-[2-(cyclopentylamino)pyrimidin-4-yl]-2-(4-methoxyphenyl)pyrazolo[1,5-c]pyrimidin-7-amine]
4	Oc1ccc(-c2nn3c(NC4CCCC4)nccc3c2-c2ccnc(NC3CCCC3)n2)cc1 [Example 22, 4-{7-(Cyclopentylamino)-3-[2-(cyclopentylamino)pyrimidin-4-yl]pyrazolo[1,5-c]pyrimidin-2-yl}phenol]
0.5	c1cc(-c2c(-c3ccc(OCC4CC4)cc3)nn3c(NC4CCCC4)nccc23)nc(NC2CCCC2)n1 [Example 23, N-Cyclopentyl-3-[2-(cyclopentylamino)pyrimidin-4-yl]-2-[4-(cyclopropylmethoxy)phenyl]pyrazolo[1,5-c]pyrimidin-7-amine]
1	COc1ccc(-c2nn3c(NC4CC4)nccc3c2-c2ccnc(NC3CCCC3)n2)cc1 [Example 24, 3-[2-(Cyclopentylamino)pyrimidin-4-yl]-N-cyclopropyl-2-(4-methoxyphenyl)pyrazolo[1,5-c]pyrimidin-7-amine]
1	COCCOc1ccc(-c2nn3c(NC4CCCC4)nccc3c2-c2ccnc(NC3CCCC3)n2)cc1 [Example 27, N-Cyclopentyl-3-[2-(cyclopentylamino)pyrimidin-4-yl]-2-[4-(2-methoxyethoxy)phenyl]pyrazolo[1,5-c]pyrimidin-7-amine]
0.5	CCCOc1ccc(-c2nn3c(NC4CCCC4)nccc3c2-c2ccnc(NC3CCCC3)n2)cc1 [Example 28, N-Cyclopentyl-3-[2-(cyclopentylamino)pyrimidin-4-yl]-2-(4-propoxyphenyl)pyrazolo[1,5-c]pyrimidin-7-amine]
7	CC(C)(C)Nc1nccc2c(-c3ccnc(NC4CCCC4)n3)c(-c3ccc(F)cc3)nn12 [Example 29, N-(tert-Butyl)-3-[2-(cyclopentylamino)pyrimidin-4-yl]-2-(4-fluorophenyl)pyrazolo[1,5-c]pyrimidin-7-amine]
2	Fc1ccc(-c2nn3c(N4CCCC4)nccc3c2-c2ccnc(NC3CCCC3)n2)cc1 [Example 30, N-Cyclopentyl-4-[2-(4-fluorophenyl)-7-pyrrolidin-1-ylpyrazolo[1,5-c]pyrimidin-3-yl]pyrimidin-2-amine]
1	Fc1ccc(-c2nn3c(N4CCCCC4)nccc3c2-c2ccnc(NC3CCCC3)n2)cc1 [Example 31, N-Cyclopentyl-4-[2-(4-fluorophenyl)-7-piperidin-1-ylpyrazolo[1,5-c]pyrimidin-3-yl]pyrimidin-2-amine]

Compound	IC50 [µM]
CCCCOc1ccc(-c2nn3c(NC4CCCC4)nccc3c2-c2ccnc(NC3CCCC3)n2)cc1 [Example 25, 2-(4-Butoxyphenyl)-N-cyclopentyl-3-[2-(cyclopentylamino)pyrimidin-4-yl]pyrazolo[1,5-c]pyrimidin-7-amine]	0.6
CC(C)COc1ccc(-c2nn3c(NC4CCCC4)nccc3c2-c2ccnc(NC3CCCC3)n2)cc1 [Example 26, N-Cyclopentyl-3-[2-(cyclopentylamino)pyrimidin-4-yl]-2-(4-isobutoxyphenyl)pyrazolo[1,5-c]pyrimidin-7-amine]	0.5
